System: patients with prior myocardial infarction (CARE study)
Assay: CARE: association of SNPs with pravastatin treatment in cardiovascular events prevention (logistic regression, odds ratio pravastatin vs placebo by genotype; Table 8)
Assay type: in vivo, human
Conditions: for Non-fatal MI (def & prob), n/total (%) / Fatal CHD/Definite Non-fatal MI, n/total (%) / Coronary Artery Bypass or Revascularization, n/total (%) / Hosp. for Unstable Angina, n/total (%) / Total Coronary Heart Disease Events, n/total (%) / Fatal/Non-fatal Atherosclerotic CV Disease, n/total (%) / Hosp. for Cardiovascular Disease, n/total (%) / Total Cardiovascular Disease Events, n/total (%) / Prava vs. Placebo Odds Ratio, 0 Rare Alleles / Prava vs. Placebo Odds Ratio, 1 Rare Alleles / Cardiovascular Mortality, n/total (%) / Fatal Atherosclerotic Cardiovascular Disease, n/total (%) / Fatal/Non-fatal MI (def & prob), n/total (%): All Patients; for Non-fatal MI (def & prob), n/total (%) / Fatal CHD/Definite Non-fatal MI, n/total (%) / Coronary Artery Bypass or Revascularization, n/total (%) / Hosp. for Unstable Angina, n/total (%) / Total Coronary Heart Disease Events, n/total (%) / Fatal/Non-fatal Atherosclerotic CV Disease, n/total (%) / Hosp. for Cardiovascular Disease, n/total (%) / Total Cardiovascular Disease Events, n/total (%) / Cardiovascular Mortality, n/total (%) / Fatal Atherosclerotic Cardiovascular Disease, n/total (%) / Fatal/Non-fatal MI (def & prob), n/total (%): Prava
From the text: In order to identify genetic markers associated with acute coronary events (e.g. MI, stroke, unstable angina, congestive heart failure, etc.) or response to statin treatment for the prevention of coronary events, samples from the Cholesterol and Recurrent Events (CARE) study (a randomized multicentral double-blinded trial on secondary prevention of acute coronary events with pravastatin) (Sacks et al., 1991, Am. J. Cardiol. 68: 1436-1446) were genotyped. A well-documented myocardial infarction (MI) was one of the enrollment criteria for entry into the CARE study. Patients were enrolled in the CARE trial from 80 participating study centers. […] Patients were randomized to receive either 40 mg of pravastatin once daily or a matching placebo. The primary endpoint of the trial was death from coronary heart disease and the median duration of follow-up was 5.0 years (range, 4.0 to 6.2 years). […] Secondary endpoints of other related cardiovascular or metabolic disease events, and changes in clinical variables were also recorded in pravastatin-treated and placebo groups. All individuals included in the study had signed a written informed consent form and the study protocol was approved by the respective Institutional Review Boards (IRBs).
For genotyping SNPs in CARE patient samples, DNA was extracted from blood samples using conventional DNA extraction methods such as the QIA-amp kit from Qiagen. Genotypes were obtained on an ABI PRISM® 7900HT Sequence Detection PCR system (Applied Biosystems, Foster City, Calif.) by kinetic allele-specific PCR, similar to the method described by Germer et al. (Germer S., Holland M. J., Higuchi R. 2000, Genome Res. 10: 258-266).
Statistical analysis for association of SNPs with pravastatin treatment in cardiovascular events prevention (Table 8) was carried out using an overall logistic regression model that included an intercept, a parameter for the effect of a genotype containing two rare alleles versus a genotype containing no rare alleles, a parameter for the effect of a genotype containing one rare allele versus a genotype containing no rare alleles, a parameter for the effect of use of pravastatin versus the use of placebo, and parameters for the interaction effects between SNP genotypes and pravastatin use. The test of the overall model is a chi-square test with two degrees of freedom for analyses containing all three genotypes, and one degree of freedom for analyses containing two genotypes.
Effect sizes were estimated through odds ratios (pravastatin group versus placebo) for carriers of each genotype (groups of 0, 1, and 2 minor allele carriers). The effect was considered to be significant if p-value for testing whether any of the interactions between SNP genotypes and pravastatin use were <0.05. […] Odds ratios less than one indicate that the specific SNP allele has a protective effect and odds ratios greater than one indicate that the specific SNP allele has an adverse effect.

[1] = CR1 hCV25598594, 2 Rare Alleles, n/total 0/0
[2] = CR1 hCV25598594, Coronary Artery Bypass or Revascularization
[3] = CR1 hCV25598594, Fatal CHD/Definite Non-fatal MI
[4] = CR1 hCV25598594, Fatal/Non-fatal Atherosclerotic CV Disease
[5] = CR1 hCV25598594, Hosp. for Cardiovascular Disease
[6] = CR1 hCV25598594, Hosp. for Unstable Angina
[7] = CR1 hCV25598594, Non-fatal MI (def & prob)
[8] = CR1 hCV25598594, Total Cardiovascular Disease Events
[9] = CR1 hCV25598594, Total Coronary Heart Disease Events
[10] = CXCL16 hCV8718197, 0 Rare Alleles, n/total 12/468

For `CC[C@H](C)C(=O)O[C@H]1C[C@H](O)C=C2C=C[C@H](C)[C@H](CC[C@@H](O)C[C@@H](O)CC(=O)O)[C@H]21` [pravastatin], the “Nonfatal MI (def & prob), n/total (%)” value (COL11A1 hCV8400671, All Patients, 2 Rare Alleles, Prava arm) was “(4.1%)”, the “Non-fatal MI (def & prob), n/total (%)” value (CR1 hCV25598594, 0 Rare Alleles, n/total 132/1445) was “(9.1%)” and the “Fatal CHD/Definite Non-fatal MI, n/total (%)” value (CR1 hCV25598594, 0 Rare Alleles, n/total 139/1445) was “(9.6%)”. The “Coronary Artery Bypass or Revascularization, n/total (%)” value (CR1 hCV25598594, 0 Rare Alleles, n/total 212/1445) was “(14.7%)”, the “Hosp. for Unstable Angina, n/total (%)” value (CR1 hCV25598594, 0 Rare Alleles, n/total 223/1445) was “(15.4%)” and the “Total Coronary Heart Disease Events, n/total (%)” value (CR1 hCV25598594, 0 Rare Alleles, n/total 431/1445) was “(29.8%)”. For the same compound, the “Fatal/Non-fatal Atherosclerotic CV Disease, n/total (%)” value (CR1 hCV25598594, 0 Rare Alleles, n/total 491/1445) was “(34.0%)”, the “Hosp. for Cardiovascular Disease, n/total (%)” value (CR1 hCV25598594, 0 Rare Alleles, n/total 586/1445) was “(40.6%)” and the “Total Cardiovascular Disease Events, n/total (%)” value (CR1 hCV25598594, 0 Rare Alleles, n/total 603/1445) was “(41.7%)”. The “Fatal CHD/Definite Non-fatal MI, n/total (%)” value (CR1 hCV25598594, 1 Rare Allele, n/total 1/72) was “(1.4%)”, the “Non-fatal MI (def & prob), n/total (%)” value (CR1 hCV25598594, 1 Rare Allele, n/total 2/72) was “(2.8%)” and the “Coronary Artery Bypass or Revascularization, n/total (%)” value (CR1 hCV25598594, 1 Rare Allele, n/total 7/72) was “(9.7%)”. For the same compound, the “Hosp. for Unstable Angina, n/total (%)” value (CR1 hCV25598594, 1 Rare Allele, n/total 8/72) was “(11.1%)”, the “Total Coronary Heart Disease Events, n/total (%)” value (CR1 hCV25598594, 1 Rare Allele, n/total 11/72) was “(15.3%)” and the “Fatal/Non-fatal Atherosclerotic CV Disease, n/total (%)” value (CR1 hCV25598594, 1 Rare Allele, n/total 15/72) was “(20.8%)”. The “Hosp. for Cardiovascular Disease, n/total (%)” value (CR1 hCV25598594, 1 Rare Allele, n/total 23/72) was “(31.9%)”, the “Total Cardiovascular Disease Events, n/total (%)” value (CR1 hCV25598594, 1 Rare Allele, n/total 24/72) was “(33.3%)” and the “Coronary Artery Bypass or Revascularization, n/total (%)” value [1] was “(0.0%)”. The “Fatal CHD/Definite Non-fatal MI, n/total (%)” value [1] was “(0.0%)”, the “Fatal/Non-fatal Atherosclerotic CV Disease, n/total (%)” value [1] was “(0.0%)” and the “Hosp. for Cardiovascular Disease, n/total (%)” value [1] was “(0.0%)”. The “Hosp. for Unstable Angina, n/total (%)” value [1] was “(0.0%)”, the “Non-fatal MI (def & prob), n/total (%)” value [1] was “(0.0%)” and the “Total Cardiovascular Disease Events, n/total (%)” value [1] was “(0.0%)”. For the same compound, the “Total Coronary Heart Disease Events, n/total (%)” value [1] was “(0.0%)”, the “Prava vs. Placebo Odds Ratio, 0 Rare Alleles” value [2] was 0.74 and the “Prava vs. Placebo Odds Ratio, 1 Rare Alleles” value [2] was 0.23. The “Prava vs. Placebo Odds Ratio, 0 Rare Alleles” value [3] was 0.76, the “Prava vs. Placebo Odds Ratio, 1 Rare Alleles” value [3] was 0.06 and the “Prava vs. Placebo Odds Ratio, 0 Rare Alleles” value [4] was 0.81. The “Prava vs. Placebo Odds Ratio, 1 Rare Alleles” value [4] was 0.25, the “Prava vs. Placebo Odds Ratio, 0 Rare Alleles” value [5] was 0.79 and the “Prava vs. Placebo Odds Ratio, 1 Rare Alleles” value [5] was 0.33. For the same compound, the “Prava vs. Placebo Odds Ratio, 0 Rare Alleles” value [6] was 0.87, the “Prava vs. Placebo Odds Ratio, 1 Rare Alleles” value [6] was 0.31 and the “Prava vs. Placebo Odds Ratio, 0 Rare Alleles” value [7] was 0.74. The “Prava vs. Placebo Odds Ratio, 1 Rare Alleles” value [7] was 0.12, the “Prava vs. Placebo Odds Ratio, 0 Rare Alleles” value [8] was 0.78 and the “Prava vs. Placebo Odds Ratio, 1 Rare Alleles” value [8] was 0.33. The “Prava vs. Placebo Odds Ratio, 0 Rare Alleles” value [9] was 0.81, the “Prava vs. Placebo Odds Ratio, 1 Rare Alleles” value [9] was 0.22 and the “Cardiovascular Mortality, n/total (%)” value [10] was “(2.6%)”. For the same compound, the “Fatal Atherosclerotic Cardiovascular Disease, n/total (%)” value [10] was “(2.6%)”, the “Fatal/Non-fatal MI (def & prob), n/total (%)” value (CXCL16 hCV8718197, 0 Rare Alleles, n/total 33/468) was “(7.1%)” and the “Fatal CHD/Definite Non-fatal MI, n/total (%)” value (CXCL16 hCV8718197, 0 Rare Alleles, n/total 36/468) was “(7.7%)”. The “Coronary Artery Bypass or Revascularization, n/total (%)” value (CXCL16 hCV8718197, 0 Rare Alleles, n/total 56/468) was “(12.0%)”, the “Total Coronary Heart Disease Events, n/total (%)” value (CXCL16 hCV8718197, 0 Rare Alleles, n/total 125/468) was “(26.7%)” and the “Hosp. for Cardiovascular Disease, n/total (%)” value (CXCL16 hCV8718197, 0 Rare Alleles, n/total 177/468) was “(37.8%)”. The “Total Cardiovascular Disease Events, n/total (%)” value (CXCL16 hCV8718197, 0 Rare Alleles, n/total 180/468) was “(38.5%)”, the “Fatal Atherosclerotic Cardiovascular Disease, n/total (%)” value (CXCL16 hCV8718197, 1 Rare Allele, n/total 23/742) was “(3.1%)” and the “Cardiovascular Mortality, n/total (%)” value (CXCL16 hCV8718197, 1 Rare Allele, n/total 24/742) was “(3.2%)”. For the same compound, the “Fatal CHD/Definite Non-fatal MI, n/total (%)” value (CXCL16 hCV8718197, 1 Rare Allele, n/total 68/742) was “(9.2%)”, the “Fatal/Non-fatal MI (def & prob), n/total (%)” value (CXCL16 hCV8718197, 1 Rare Allele, n/total 75/742) was “(10.1%)” and the “Coronary Artery Bypass or Revascularization, n/total (%)” value (CXCL16 hCV8718197, 1 Rare Allele, n/total 119/742) was “(16.0%)”. The “Total Coronary Heart Disease Events, n/total (%)” value (CXCL16 hCV8718197, 1 Rare Allele, n/total 220/742) was “(29.6%)”, the “Hosp. for Cardiovascular Disease, n/total (%)” value (CXCL16 hCV8718197, 1 Rare Allele, n/total 305/742) was “(41.1%)” and the “Total Cardiovascular Disease Events, n/total (%)” value (CXCL16 hCV8718197, 1 Rare Allele, n/total 314/742) was “(42.3%)”. The “Cardiovascular Mortality, n/total (%)” value (CXCL16 hCV8718197, 2 Rare Alleles, n/total 19/292) was “(6.5%)”.
